These results are taken from ChEMBL document CHEMBL1201862, “PubChem BioAssay data set” (2004).

What all share (experiment): NCI anticancer screen, dose series, 48 h
Test [1] deals with A549.
The subject of test [2] is HCC 2998.
Test [3] concerns HCT-116.
Test [4] has as its system NCI-H226.
Test [5] has as its system NCI-H23.
Test [6] deals with NCI-H522.
In test [7] the test system is OVCAR-8.
For test [8], the system named is SK-MEL-5.
The test system of test [9] is SNB-19.
The test system of test [10] is SNB-75.
Test [11] has as its system SW-620.
The subject of test [12] is UACC-62.
The subject of test [13] is ACHN.
The test system of test [14] is CAKI-1.
The subject of test [15] is HCT-15.
Test [16] concerns OVCAR-5.

Structures are written as SMILES.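 Five concentrations, 48 hours, 96-well plates. GI50 is the concentration that inhibits growth by half.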 Activity calls are given as the source filed them. Rule as the data show it: active = GI50 up to about 1.1 µM and inactive = higher.

`CC1CC#CCOC(=O)CCCC1=O` (configuration not stated): the GI50 in [1], in test [2], in test [3], in [4], in test [5] and in test [6] was > 100 µM (inactive) throughout. For the same compound, the GI50 in test [7], in test [8], in [9], in test [10], in test [11] and in [12] was > 100 µM (inactive) each time.

Turning to `Cc1ccc2nc3c(Cl)cc(=O)cc-3sc2c1`, the GI50 was 19.5 µM (inactive) in [1]; 23.3 µM (inactive) in [13]; 27.4 µM (inactive) in test [14]; 17.9 µM (inactive) in test [3]; 17.5 µM in test [15]; 27.2 µM (inactive) in test [4]. Moreover, the GI50 was > 10 µM (inactive) in test [5]; 16.7 µM (inactive) in test [6]; > 10 µM (inactive) in [16]; 21.2 µM (inactive) in test [7]; 17.1 µM (inactive) in test [8]; > 10 µM (inactive) in test [9]. The GI50 in [10] was 21.5 µM (inactive); in test [11], 21.6 µM (inactive); in test [12] it was 15.9 µM (inactive).

Turning to `O=C(O)c1ccc2c(c1)C(=O)N(c1ccc(S(=O)(=O)c3ccc(N4C(=O)c5ccc(C(=O)O)cc5C4=O)cc3)cc1)C2=O`, the GI50 in test [1] was > 100 µM (inactive); in test [13], > 100 µM (inactive); in test [14] it was > 100 µM (inactive); in test [3] it was > 100 µM (inactive); in [15], greater than 100 µM; in test [4], > 100 µM (inactive). The GI50 in test [5], in [6], in [16], in [7], in test [8] and in test [9] was > 100 µM (inactive) each time. Besides, the GI50 in test [10], in test [11] and in [12] was > 100 µM (inactive) each time.

For the compound `C/C(=N/NS(=O)(=O)c1ccc(C)cc1)c1cccc[n+]1[O-]`, the GI50 is > 100 µM (inactive) in [1]; > 100 µM (inactive) in test [13]; > 100 µM (inactive) in test [14]; > 100 µM (inactive) in [2]; > 100 µM (inactive) in test [3]; greater than 100 µM in [15]. Also, the GI50 in [5], in test [6], in test [16], in test [7], in test [8] and in test [9] was > 100 µM (inactive) each time. In addition, the GI50 in [10], in test [11] and in [12] was > 100 µM (inactive) each time.

Regarding `C/C(CC(=O)CCCC(=O)Nc1ccc(Cl)cc1Cl)=N/NC(=O)CC#N`, the GI50 is > 100 µM (inactive) in test [1]; > 100 µM (inactive) in test [13]; > 100 µM (inactive) in [14]; > 100 µM (inactive) in test [2]; > 100 µM (inactive) in [3]; greater than 100 µM in [15]. In addition, the GI50 in [4], in test [5], in test [16], in test [7], in test [8] and in test [9] was > 100 µM (inactive) in each case. The GI50 in test [10], in test [11] and in [12] was > 100 µM (inactive) in each case.

As to `COP12(OC)NC(=O)OC1(C(F)(F)F)c1ccccc1O2` (configuration not stated), the GI50 in [1] is > 100 µM (inactive); in test [13], > 100 µM (inactive); in test [3], > 100 µM (inactive); in [15] it was greater than 100 µM; in test [4], > 100 µM (inactive); in test [5] it was > 100 µM (inactive). Also, the GI50 in test [6] was > 100 µM (inactive); in test [7] it was > 100 µM (inactive); in [8], > 100 µM (inactive); in test [9], > 100 µM (inactive); in [10] it was 44.9 µM (inactive); in test [12], > 100 µM (inactive).

Consider `CC(=O)OCC1OC(n2cccnc2=O)C(OC(C)=O)C1OC(C)=O` (configuration not stated), for which the GI50 in test [1] is > 100 µM (inactive); in test [13], > 100 µM (inactive); in test [14] it was > 100 µM (inactive); in test [3], > 100 µM (inactive); in test [15] it was greater than 100 µM; in test [4] it was > 100 µM (inactive). In addition, the GI50 in test [6], in test [16], in test [7], in test [8], in [9] and in test [10] was > 100 µM (inactive) throughout. For the same compound, the GI50 in test [11] and in test [12] was > 100 µM (inactive) throughout.

As to `C(=C1\CCC/C(=C/c2ccccc2)C1=NNc1ccccc1)/c1ccccc1`, the GI50 is > 100 µM (inactive) in [1]; > 100 µM (inactive) in [13]; > 100 µM (inactive) in test [2]; > 100 µM (inactive) in test [3]; greater than 100 µM in [15]; > 100 µM (inactive) in [5]. For the same compound, the GI50 in [6] is > 100 µM (inactive); in test [16], > 100 µM (inactive); in test [7], > 100 µM (inactive); in [8] it was > 100 µM (inactive); in [9], > 100 µM (inactive); in test [10], 87.3 µM (inactive). Besides, the GI50 in test [11] and in test [12] was > 100 µM (inactive) each time.

Take `OC12c3ccccc3C1(N1CCOCC1)CCCCC21OCCCO1` (configuration not stated): the GI50 in test [1] is > 100 µM (inactive); in test [13], > 100 µM (inactive); in [14] it was > 100 µM (inactive); in test [3], > 100 µM (inactive); in [15], greater than 100 µM; in test [4], > 100 µM (inactive). Also, the GI50 in test [5], in [6], in [16], in [7], in [8] and in [9] was > 100 µM (inactive) throughout. For the same compound, the GI50 in test [10] and in [12] was > 100 µM (inactive) each time.

As to `COc1cc2ccnc(-c3c4ccccc4c(N)c4c(OC)c(OC)ccc34)c2cc1OC`, the GI50 in test [1] is 4.17 µM (inactive); in test [13] it was 3.54 µM (inactive); in test [14], 2.65 µM (inactive); in test [2] it was 2.62 µM (inactive); in test [4] it was 2.07 µM (inactive); in test [5], 3.21 µM (inactive). Besides, the GI50 in test [6] was 3.16 µM (inactive); in test [7], 3.6 µM (inactive); in [8], 3.27 µM (inactive); in [9], 2.85 µM (inactive); in test [11], 2.28 µM (inactive); in test [12], 2.79 µM (inactive).

Take `C[N+](C)=c1[nH]c2ccccc2[nH]1`: the GI50 in test [1] was > 100 µM (inactive); in test [13] it was > 100 µM (inactive); in [14], > 100 µM (inactive); in test [2] it was > 100 µM (inactive); in [15], greater than 100 µM; in test [5], > 100 µM (inactive). The GI50 in test [6] was > 100 µM (inactive); in test [16], > 100 µM (inactive); in test [7], > 100 µM (inactive); in [8], > 100 µM (inactive); in test [10], 24.3 µM (inactive); in test [11] it was > 100 µM (inactive). In test [12], the GI50 was > 100 µM (inactive).

`N=c1n(CC(=O)NC23CC4CC(CC(C4)C2)C3)c2ccccc2n1CC(=O)NC12CC3CC(CC(C3)C1)C2`: the GI50 in test [1] was 2.07 µM (inactive); in [13], 2 µM (inactive); in [14], 12 µM (inactive); in test [2], 1.36 µM (inactive); in test [3] it was 2.03 µM (inactive); in [15], 1.9 µM. Besides, the GI50 in [5] was 1.74 µM (inactive); in test [6], 1.9 µM (inactive); in test [16] it was 1.69 µM (inactive); in test [7], 1.68 µM (inactive); in test [8] it was 1.82 µM (inactive); in [9], 1.66 µM (inactive). The GI50 in [10] was 2.29 µM (inactive); in [11] it was 1.63 µM (inactive); in test [12], 1.96 µM (inactive).

Consider `COc1cc(C(=O)C/C(CCC(=O)Nc2ccccc2[N+](=O)[O-])=N\NC(=O)C(N)=O)ccc1O`, for which the GI50 is > 100 µM (inactive) in test [1]; > 100 µM (inactive) in [13]; > 100 µM (inactive) in [14]; > 100 µM (inactive) in [3]; greater than 100 µM in test [15]; > 100 µM (inactive) in test [4]. Moreover, the GI50 in [5], in [16], in test [7], in test [9], in test [11] and in [12] was > 100 µM (inactive) in each case.

Turning to `Cc1cc(C)c(C(=O)c2no[n+]([O-])c2C(=O)c2c(C)cc(C)c(Br)c2C)c(C)c1Br`, the GI50 is 13.8 µM (inactive) in test [1]; 12.6 µM (inactive) in test [13]; 11.4 µM (inactive) in test [14]; 10.2 µM (inactive) in test [3]; 13.5 µM in test [15]; 16.1 µM (inactive) in [4]. Moreover, the GI50 was 11.5 µM (inactive) in test [5]; 10.9 µM (inactive) in test [6]; 16 µM (inactive) in test [16]; 10.9 µM (inactive) in test [7]; 15.7 µM (inactive) in [9]; 9.31 µM (inactive) in test [10]. Besides, the values for the GI50 in [11] and in test [12] were 12.9 µM (inactive) and 10.7 µM (inactive), respectively.
